According to PubChem BioAssay AID1419 (Emory University Molecular Libraries Screening Center, 2008):
Active and inactive are the calls of the source. The rule behind the calls is not given here.

Assay: blockers of an Epstein-Barr virus protein-peptide interaction – biochemical, fluorescence polarization, dose response (AID 1419)
Conditions: cell-free protein-peptide binding, 2 h; for fold change: measured here: P channel fold over control, at 54 µM

| Compound | IC50 | fold change |
| --- | --- | --- |
| Cc1ccc(C)c(-n2c3nc(=O)[nH]c(=O)c-3cc3cc([N+](=O)[O-])ccc32)c1 | 8.3 µM | 2.52 |
| Cc1ccc(S(=O)(=O)c2cc3c(=O)n4ccccc4nc3n(Cc3ccco3)c2=N)cc1 | > 54 µM (inactive) | 1.74 |
| Cn1c(=O)[nH]c2cc(Cl)cnc21 | 7.23 µM | 2.34 |
| Nc1ccc2c(c1Cl)C(=O)c1ccc(N)c(Cl)c1C2=O | 11.4 µM | 1.07 |
| O=C(COc1ccccc1Cl)c1ccc[nH]1 | > 54 µM (inactive) | 1.08 |
| Cc1ccc(C(=O)ONc2ccc(N=NC(=O)c3ccccc3O)cc2)cc1 | 4.35 µM | 0.99 |
| O=S(=O)(Nc1cc2nc3ccccc3nc2n1Cc1ccccc1)c1ccc(Cl)cc1 | 2.89 µM | 13 |
| Cn1cc(/C=C2\SC(=S)N(NC(=O)c3cccc(Cl)c3)C2=O)c2ccccc21 | 4.3 µM | 8.23 |
| COc1cc(-c2ccc(Nc3ccccc3C(=O)O)c(OC)c2)ccc1Nc1ccccc1C(=O)O | > 54 µM (inactive) | 0.9 |
| CCOC(=O)c1cc2n(c1N)-c1ccccc1C2=O | < 0.42 µM | 104 |
| CC1(C)CC(=O)C2=C(C1)OC(N)=C(C#N)[C@@H]2c1ccccc1[N+](=O)[O-] | 2.27 µM | 4.78 |
| COc1ccc(Cl)cc1CN1CCN(c2nc(C)cc(C)c2C#N)CC1 | 18.9 µM | 2.25 |
| CN(C)c1ccnc2sc(C(=O)c3ccc(Br)cc3)c(N)c12 | > 54 µM (inactive) | 0.973 |
| Cc1cc(C)cc(-n2c(O)c(C=Nc3ccc(N4CCOCC4)cc3)c(=O)[nH]c2=S)c1 | > 54 µM (inactive) | 2.23 |
| N#CC1=C(N)OC2=C(CC/C2=C\c2ccc(F)cc2)C1c1ccc(F)cc1 (stereo not drawn) | 20 µM | 3.48 |
| CCC1=NN2C(=N)/C(=C\c3cccn3-c3ccc(Br)cc3)C(=O)N=C2S1 | > 54 µM (inactive) | 1.04 |
| Fc1ccccc1C(c1nnnn1C1CCCC1)N1CCN(Cc2ccccc2)CC1 (stereo not drawn) | > 54 µM (inactive) | 1.05 |
| COc1ccc(NC(=O)c2sc3nc(-c4cccnc4)ccc3c2N)cc1 | 2.44 µM | 6.91 |
| O=[N+]([O-])c1ccc(-c2nc3ccc([N+](=O)[O-])cc3[nH]2)cc1 | > 54 µM (inactive) | 1.04 |
| O=C(Cn1cc2c(n1)CCCC2)NCc1ccccn1 | 25.9 µM | 1.54 |

| Compound | IC50 | fold change |
| --- | --- | --- |
| COC(=O)C1=COC(C)C2CN3CCc4c([nH]c5cc(OC)c(OC)cc45)C3CC12 (stereo not drawn) | 8.76 µM | 2.6 |
| COC(=O)c1cc(C(=O)c2ccc(Cl)cc2)n2c(=O)/c(=C\N(C)C)sc12 | 51.9 µM (inactive) | 1.56 |
| COc1ccc(OC)c2c1C(=O)c1ccccc1C2=O | < 0.42 µM | 41.6 |
| CCN(CC)c1ccc(N=Cc2c(O)n(CCc3ccc(OC)c(OC)c3)c(=O)[nH]c2=O)cc1 | > 54 µM (inactive) | 5.55 |
| CC(C)N(C(=O)C[n+]1ccc(/C=N/O)cc1)C(C)C | > 54 µM (inactive) | 1.05 |
| Cc1cc(C)c2cc3c(ccn3C3OC[C@H](O)[C@H](O)[C@H]3O)cc2n1 (stereo partly drawn) | 3.78 µM | 2.96 |
| O=C1CCC(=O)N1c1nc2n(n1)C(c1ccccc1)C=C(c1ccc(Br)cc1)N2 (stereo not drawn) | > 54 µM (inactive) | 1.53 |
| O=C1C(=Cc2ccc(Br)o2)C(=O)c2ccccc21 | > 54 µM (inactive) | 1.09 |
| Cc1c2ccccc2nc2c(F)c(N(C)C)c(F)c(F)c12 | < 0.42 µM | 8.81 |
| Nc1cccc(C(=O)OCC(=O)Nc2cccc3c2C(=O)c2ccccc2C3=O)c1 | 1.81 µM | 2.03 |
| COc1ccc(N=Nc2nc3cc(Br)c(Br)cc3n2C)c(OC)c1 | 2.95 µM | 5.37 |
| COc1ccc(/C=C2\SC(=S)N(CCCC(=O)Nc3ccccn3)C2=O)cc1OC | 8.78 µM | 9.33 |
| O=[N+]([O-])c1cc(/C=N\Nc2nccs2)ccc1O | 1.31 µM | 1.07 |
| O=C(Nc1nnc(Cc2ccccc2)s1)c1cnccn1 | > 54 µM (inactive) | 1.06 |
| O=C(Nc1ccccc1F)C(=Cc1sc(N2CCOCC2)nc1-c1ccccc1)C(=O)Nc1ccccc1F | 5.71 µM | 7.63 |
| O=C1C2CC=C(Cl)CC2C(=O)N1CCCCCCN1C(=O)C2CC=C(Cl)CC2C1=O (stereo not drawn) | 6.72 µM | 1.89 |
| N=c1oc2cc(O)ccc2cc1C(=O)Nc1ccccn1 | 6.67 µM | 5.39 |
| O=C(N/N=C/c1ccccc1Cl)c1nc2ccc([N+](=O)[O-])cc2c(=O)[nH]1 | > 54 µM (inactive) | 0.977 |
| CCN(c1ccc(N=Cc2c(O)n(Cc3ccc(OC)cc3)c(=O)c3ccccc23)cc1)C(C)C | 2.17 µM | 132 |
